Measurements published in PMC9820311, “Characterization of a Novel Amphiphilic Cationic Chlorin Photosensitizer for Photodynamic Applications” (International Journal of Molecular Sciences, 2022).

Target: T1, bovine serum albumin (BSA) (Bos taurus, UniProt P02769)
T1 construct: gene ALB
Assay: BSA intrinsic fluorescence quenching titration (Stern-Volmer; λex = […] nm, […] BSA), supported by chlorin fluorescence increase and DLS
Type: binding
Conditions: read-out: BSA intrinsic fluorescence quenching titration (Stern-Volmer); λex = 290 nm, 5 μM (converted)

T1 sequence (P02769 25-607): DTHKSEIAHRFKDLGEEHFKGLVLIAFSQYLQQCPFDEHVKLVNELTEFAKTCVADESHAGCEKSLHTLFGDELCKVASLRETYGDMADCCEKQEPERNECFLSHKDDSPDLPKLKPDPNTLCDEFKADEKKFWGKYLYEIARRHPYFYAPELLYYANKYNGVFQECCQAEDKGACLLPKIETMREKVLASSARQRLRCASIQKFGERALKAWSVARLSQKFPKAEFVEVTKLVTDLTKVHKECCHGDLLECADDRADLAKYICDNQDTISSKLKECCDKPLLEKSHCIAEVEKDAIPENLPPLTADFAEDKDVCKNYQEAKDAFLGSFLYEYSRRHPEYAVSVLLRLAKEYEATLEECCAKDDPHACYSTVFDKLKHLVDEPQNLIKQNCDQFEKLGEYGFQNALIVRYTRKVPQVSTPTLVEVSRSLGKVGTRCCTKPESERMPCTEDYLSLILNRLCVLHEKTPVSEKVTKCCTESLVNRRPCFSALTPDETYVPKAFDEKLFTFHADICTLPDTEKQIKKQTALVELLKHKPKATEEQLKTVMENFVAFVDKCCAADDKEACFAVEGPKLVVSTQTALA

Kd: 2740 nM
Compound: CCC1=C(C)c2cc3[nH]c(cc4nc(c(CC(=O)OC)c5[nH]c(cc1n2)c(C)c5C(=O)NC)[C@@H](CCC(=O)OC/C=C(\C)CCCC(C)CCCC(C)CCCC(C)C)[C@@H]4C)c(C)c3C(=CC[N+](C)(C)C)C[N+](C)(C)C (mixture of isomers) [compound 1, 3(1),3(2)-bis(N,N,N-trimethylaminomethyliodide) chlorin e6 13(1)-N-methylamide-15(2)-methyl,17(3)-phytyl ester]
